Data from US11517591B2, “Immunogenic peptides specific to BCMA and TACI antigens” (Dana-Farber Cancer Institute, Inc., priority 2017, dated 2022).

Assays:
[1] = biological target: T1, HLA-A2 molecule (Homo sapiens, UniProt P04439, D140Y/D185E/D98H/E176V/E277Q/G131W/G231S/I119V/I121R/I166T/I218V/L300P/L318F/N151K/N90K/P208A/P217A/Q86G/Q94H/R138H/R169H/T345S); experiment: HLA-A2 binding affinity assay on peptide-pulsed T2 cells (HLA-A2 up-regulation, flow cytometry MFI)
T1 construct: endogenous in cells; host or cells: T2 cell line (human B and T cell hybrid), provided by Dr. J. Molldrem
Experimental: The listed BCMA peptides were evaluated for HLA-A2-specific binding capacity using the T2 cell line. In the assay, T2 cells were washed, resuspended in serum-free AIM-V medium to a final concentration of 1×10^6 cells/ml and transferred into wells of a 24-well tissue culture plate. The cells were pulsed with different concentrations of respective BCMA peptide (0-200 μg/ml) plus 3 μg/ml human β2-microglobulin (Sigma) and incubated at 37° C., 5% CO2 in humidified air. Following overnight incubation, the cells were washed, stained with mouse anti-human HLA-A2-FITC mAb for 15 minutes at 4° C., washed and analyzed using a FACSort™ flow cytometer with CellQuest™ v2.1 software (Becton Dickinson, San Jose, Calif.). […] Among the BCMA peptides evaluated, “#4. […] (FIG. 2).
(§1) T2 cells were pulsed overnight with various doses of peptide plus β2-microglobulin (3 μg/ml) (Sigma, St Louis, Mo.). Following overnight incubation, the cells were stained with HLA-A2-PE mAb and analyzed using a FACSCanto™ flow cytometer (BD). Peptide/HLA-A2 complex stability was measured on peptide loaded T2 cells at 0, 2, 4, 6 and 14 hours post-brefeldin A treatment by staining with HLA-A2-PE mAb and flow cytometric analysis.
as §1, with “concentrations” for “doses”, “The stability of peptide/HLA-A2” for “Peptide/HLA-A2”, “binding” for “stability”, “treatment followed” for “treatment”

[2] = biological target: T1, HLA-A2 molecule; experiment: Peptide/HLA-A2 complex stability on peptide-loaded T2 cells post-brefeldin A; format: binding
Experimental: The native and heteroclitic BCMA and TACI peptides were examined for HLA-A2 binding stability using the T2 cell line. T2 cells were pulsed with the respective peptide. After overnight incubation, the cells were washed to remove unbound peptide; they were evaluated for binding affinity as shown above and stability as following. The cells were incubated with 10 μg/ml Brefeldin A (Sigma) at 37° C. and 5% CO2 for 1 hour to block cell surface expression of newly synthesized HLA-A2 molecules. Peptide/HLA-A2 binding stability was evaluated at 0, 2, 4, 6 and 18 hours post-Brefeldin A treatment. Following the incubation period, the cells were harvested, washed, stained with mouse anti-human HLA-A2-FITC mAb and analyzed by flow cytometry. […] Therefore, the Heteroclitic #4 BCMA72-80 (YLMFLLRKI (SEQ ID NO: 13)) and Heteroclitic #3. TACI154-162 (YLSADQVAL (SEQ ID NO: 16) peptides were selected for further evaluation of their immunogenic potential to generate MM-specific cytotoxic T cells (CTLs).
as §1
as §1, with “concentrations” for “doses”, “The stability of peptide/HLA-A2” for “Peptide/HLA-A2”, “binding” for “stability”, “treatment followed” for “treatment”

[3] = system: peripheral blood mononuclear cells from HLA-A2+ normal donors; experiment: Generation and phenotypic characterization of BCMA-CTL stimulated with free or nanoparticle-encapsulated BCMA peptide; format: cell-based, human
Experimental: BCMA peptide-specific CTL (BCMA-CTL) were generated ex vivo by repeated stimulation of peripheral blood mononuclear cells isolated from HLA-A2^+ normal donors' with (1) HLA-A2 specific BCMA immunogenic peptide (50 ug/ml), (2) a blank nanoparticle (PLGA or liposome) without peptide, or (3) the BCMA peptide (50 ug/ml) encapsulated nanoparticle (PLGA/peptide or liposome/peptide). PBMC were cultured in DMEM medium supplemented with 10% human AB serum (BioWhittaker) and pulsed weekly with the appropriate BCMA peptide for a total of 4 or 5 cycles. IL-2 (50 U/ml) was added to the T cell cultures two days after the second stimulation.
BCMA peptide-specific CD8^+ CTL were evaluated for Naïve: Memory cell development and expression of CD28 co-stimulatory molecule by flow cytometry. In addition, BCMA peptide-specific CD8^+ CTL were assessed within the cultures by staining with BCMA peptide-specific Tetramer-PE. Following tetramer staining at 37° C. for 30 min, cells were washed and stained with CD8-FITC and CD28-APC mAbs. After staining, cells were washed, fixed in 2% paraformaldehyde, acquired using a LSRII Fortessa™ flow cytometer, and analyzed using FACS DIVA™ v8.0 (BD) or FlowJo v10.0.7 (Tree star, Ashland, Oreg.) software. BCMA-CTL were analyzed for the presence\frequency of specific memory (central memory, effector memory)/non-memory populations within the total gated CD3^+CD8^+ T cell population.

[4] = after the 5-cycle of peptide stimulation

- HLA-A2 binding affinity, heteroclitic vs native peptide ([1]; Example 4, FIGS. 4 and 5): increased from their native peptide
- HLA-A2 stability of heteroclitic vs native BCMA peptide ([2]; Example 12): further enhanced
Sequence: YLMFLLRKI [heteroclitic BCMA72-80, heteroclitic BCMA peptide]
- change in HLA-A2 binding affinity of heteroclitic BCMA peptide compared to native peptide ([1]; Example 12, n=3, p<0.05): highest increase in HLA-A2 binding affinity
- HLA-A2 binding stability, heteroclitic vs native peptide ([2]; 50 ug/ml, 0, 2, 4, 6 and 18 hours post-Brefeldin A, Example 4, FIGS. 6 and 7): significant improvement in their HLA-A2 affinity at all the time points evaluated
- HLA-A2 affinity and stability at each time point, compared with HIV-Gag77-85 positive control ([2]; Example 12): highest level of HLA-A2 affinity and stability
- total CD45RO+ memory CTL ([3]; 3′ stimulation): 15.3%
- total CD45RO+ memory CTL ([3]; 4′ stimulation): 19.5%
- total CD45RO+ memory CTL ([3]; 5′ stimulation): 79.0%
- central memory (CM) CD8+ T cell subset ([3]; after 1 cycle of stimulation): 2.9%
- effector memory (EM) CD8+ T cell subset ([3]; after 1 cycle of stimulation): 5.7%
- central memory (CM) CD8+ T cell subset ([3]; after 3 cycles of stimulation): 12.4%
- effector memory (EM) CD8+ T cell subset ([3]; after 3 cycles of stimulation): 11.0%
- central memory (CM) CD8+ T cell subset [3, 4]: 3.5%
- effector memory (EM) CD8+ T cell subset [3, 4]: 95.4%
